From ChEMBL document CHEMBL4251634, “Synthesis and antimicrobial activity of pyrimidinyl 1,3,4-oxadiazoles, 1,3,4-thiadiazoles and 1,2,4-triazoles” (2018)
Activity calls are given as the source filed them. The calls are words filed in the database; no cut-off is given here.

Key:
Type in all cases: functional
[1] = tested on: Penicillium chrysogenum; assay: Antifungal activity against Penicillium chrysogenum assessed as diameter of inhibition zone at 25 ug/well after 48 hrs by agar well diffusion method; conditions: for zone of inhibition at 25 µg/disc: read-out: DIZ
[2] = tested on: Pseudomonas aeruginosa; assay: Antibacterial activity against Pseudomonas aeruginosa assessed as diameter of inhibition zone at 100 ug/well after 24 hrs by agar well diffusion method; conditions: for zone of inhibition at 100 µg/disc: read-out: DIZ
[3] = tested on: Staphylococcus aureus; assay: Antibacterial activity against Staphylococcus aureus assessed as diameter of inhibition zone at 25 ug/well after 24 hrs by agar well diffusion method
[4] = tested on: Staphylococcus aureus; assay: Antibacterial activity against Staphylococcus aureus assessed as diameter of inhibition zone at 12.5 ug/well after 24 hrs by agar well diffusion method
[5] = tested on: Staphylococcus aureus; assay: Antibacterial activity against Staphylococcus aureus assessed as diameter of inhibition zone at 100 ug/well after 24 hrs by agar well diffusion method
[6] = tested on: Aspergillus niger; assay: Antifungal activity against Aspergillus niger assessed as diameter of inhibition zone at 12.5 ug/well after 48 hrs by agar well diffusion method; conditions: for zone of inhibition at 12.5 µg/disc: read-out: DIZ
[7] = tested on: Bacillus subtilis; assay: Antibacterial activity against Bacillus subtilis assessed as diameter of inhibition zone at 12.5 ug/well after 24 hrs by agar well diffusion method
[8] = tested on: Klebsiella pneumoniae; assay: Antibacterial activity against Klebsiella pneumoniae assessed as diameter of inhibition zone at 12.5 ug/well after 24 hrs by agar well diffusion method
[9] = tested on: Aspergillus niger; assay: Antifungal activity against Aspergillus niger assessed as diameter of inhibition zone at 25 ug/well after 48 hrs by agar well diffusion method; conditions: for zone of inhibition at 25 µg/disc: read-out: DIZ
[10] = tested on: Pseudomonas aeruginosa; assay: Antibacterial activity against Pseudomonas aeruginosa assessed as diameter of inhibition zone at 25 ug/well after 24 hrs by agar well diffusion method; conditions: for zone of inhibition at 25 µg/disc: read-out: DIZ
[11] = tested on: Klebsiella pneumoniae; assay: Antibacterial activity against Klebsiella pneumoniae assessed as diameter of inhibition zone at 50 ug/well after 24 hrs by agar well diffusion method; conditions: for zone of inhibition at 50 µg/disc: read-out: DIZ
[12] = tested on: Klebsiella pneumoniae; assay: Antibacterial activity against Klebsiella pneumoniae assessed as diameter of inhibition zone at 100 ug/well after 24 hrs by agar well diffusion method; conditions: for zone of inhibition at 100 µg/disc: read-out: DIZ
[13] = tested on: Penicillium chrysogenum; assay: Antifungal activity against Penicillium chrysogenum assessed as diameter of inhibition zone at 50 ug/well after 48 hrs by agar well diffusion method; conditions: for zone of inhibition at 50 µg/disc: read-out: DIZ
[14] = tested on: Bacillus subtilis; assay: Antibacterial activity against Bacillus subtilis assessed as diameter of inhibition zone at 25 ug/well after 24 hrs by agar well diffusion method
[15] = tested on: Aspergillus niger; assay: Antifungal activity against Aspergillus niger assessed as diameter of inhibition zone at 50 ug/well after 48 hrs by agar well diffusion method; conditions: for zone of inhibition at 50 µg/disc: read-out: DIZ
[16] = tested on: Penicillium chrysogenum; assay: Antifungal activity against Penicillium chrysogenum assessed as diameter of inhibition zone at 100 ug/well after 48 hrs by agar well diffusion method; conditions: for zone of inhibition at 100 µg/disc: read-out: DIZ
[17] = tested on: Staphylococcus aureus; assay: Antibacterial activity against Staphylococcus aureus assessed as diameter of inhibition zone at 50 ug/well after 24 hrs by agar well diffusion method
[18] = tested on: Penicillium chrysogenum; assay: Antifungal activity against Penicillium chrysogenum assessed as diameter of inhibition zone at 12.5 ug/well after 48 hrs by agar well diffusion method; conditions: for zone of inhibition at 12.5 µg/disc: read-out: DIZ
[19] = tested on: Bacillus subtilis; assay: Antibacterial activity against Bacillus subtilis assessed as diameter of inhibition zone at 50 ug/well after 24 hrs by agar well diffusion method
[20] = tested on: Aspergillus niger; assay: Antifungal activity against Aspergillus niger assessed as diameter of inhibition zone at 100 ug/well after 48 hrs by agar well diffusion method; conditions: for zone of inhibition at 100 µg/disc: read-out: DIZ
[21] = tested on: Bacillus subtilis; assay: Antibacterial activity against Bacillus subtilis assessed as diameter of inhibition zone at 100 ug/well after 24 hrs by agar well diffusion method; conditions: for zone of inhibition at 100 µg/disc: read-out: DIZ
[22] = tested on: Klebsiella pneumoniae; assay: Antibacterial activity against Klebsiella pneumoniae assessed as diameter of inhibition zone at 25 ug/well after 24 hrs by agar well diffusion method; conditions: for zone of inhibition at 25 µg/disc: read-out: DIZ
[23] = tested on: Pseudomonas aeruginosa; assay: Antibacterial activity against Pseudomonas aeruginosa assessed as diameter of inhibition zone at 12.5 ug/well after 24 hrs by agar well diffusion method; conditions: for zone of inhibition at 12.5 µg/disc: read-out: DIZ
[24] = tested on: Pseudomonas aeruginosa; assay: Antibacterial activity against Pseudomonas aeruginosa assessed as diameter of inhibition zone at 50 ug/well after 24 hrs by agar well diffusion method; conditions: for zone of inhibition at 50 µg/disc: read-out: DIZ

Row | Compound | zone of inhibition at 25 µg/disc [1] | zone of inhibition at 100 µg/disc [2] | zone of inhibition at 12.5 µg/disc [6] | zone of inhibition at 25 µg/disc [9] | zone of inhibition at 25 µg/disc [10] | zone of inhibition at 50 µg/disc [11] | zone of inhibition at 100 µg/disc [12] | zone of inhibition at 50 µg/disc [13] | zone of inhibition at 50 µg/disc [15] | zone of inhibition at 100 µg/disc [16] | zone of inhibition at 100 µg/disc [20] | zone of inhibition at 50 µg/disc [24] | diameter of the inhibition zone (DIZ) [3] | diameter of the inhibition zone (DIZ) [4] | diameter of the inhibition zone (DIZ) [5] | diameter of the inhibition zone (DIZ) [7] | diameter of the inhibition zone (DIZ) [8] | diameter of the inhibition zone (DIZ) [14] | diameter of the inhibition zone (DIZ) [17] | diameter of the inhibition zone (DIZ) [19] | further results
1 | Cc1cc(SCc2nnc(-c3ccc(Br)cc3)n2N)nc(SCc2nnc(-c3ccc(Br)cc3)n2N)n1 | 19 mm | 25 mm | 27 mm | 29 mm | 20 mm | 25 mm | 28 mm | 21 mm | 31 mm | 24 mm | 34 mm | 22 mm | – | – | – | – | – | – | – | – | zone of inhibition at 25 µg/disc ([3]; read-out: DIZ): 10 mm; zone of inhibition at 12.5 µg/disc ([4]; read-out: DIZ): 9 mm; zone of inhibition at 100 µg/disc ([5]; read-out: DIZ): 14 mm; zone of inhibition at 12.5 µg/disc ([7]; read-out: DIZ): 15 mm; zone of inhibition at 12.5 µg/disc ([8]; read-out: DIZ): 21 mm; zone of inhibition at 25 µg/disc ([14]; read-out: DIZ): 16 mm; zone of inhibition at 50 µg/disc ([17]; read-out: DIZ): 12 mm; zone of inhibition at 12.5 µg/disc [18]: 17 mm; zone of inhibition at 50 µg/disc ([19]; read-out: DIZ): 18 mm; zone of inhibition at 100 µg/disc [21]: 20 mm; zone of inhibition at 25 µg/disc [22]: 23 mm; zone of inhibition at 12.5 µg/disc [23]: 16 mm
2 | COc1ccc(-c2nnc(CSc3cc(C)nc(SCc4nnc(-c5ccc(OC)cc5)s4)n3)s2)cc1 | – | 10 mm | – | – | – | – | 13 mm | – | – | – | – | 8 mm | inactive | inactive | inactive | inactive | inactive | inactive | inactive | inactive | diameter of the inhibition zone (DIZ) [1]: inactive; diameter of the inhibition zone (DIZ) [6]: inactive; diameter of the inhibition zone (DIZ) [9]: inactive; diameter of the inhibition zone (DIZ) [10]: inactive; diameter of the inhibition zone (DIZ) [11]: inactive; diameter of the inhibition zone (DIZ) [13]: inactive; diameter of the inhibition zone (DIZ) [15]: inactive; diameter of the inhibition zone (DIZ) [16]: inactive; diameter of the inhibition zone (DIZ) [18]: inactive; diameter of the inhibition zone (DIZ) [20]: inactive; diameter of the inhibition zone (DIZ) [21]: inactive; diameter of the inhibition zone (DIZ) [22]: inactive; diameter of the inhibition zone (DIZ) [23]: inactive
3 | Cc1cc(SCc2nnc(-c3ccccc3)o2)nc(SCc2nnc(-c3ccccc3)o2)n1 | 10 mm | 14 mm | 14 mm | 16 mm | 9 mm | 9 mm | 12 mm | 11 mm | 18 mm | 13 mm | 21 mm | 11 mm | inactive | inactive | inactive | inactive | inactive | inactive | inactive | inactive | zone of inhibition at 12.5 µg/disc [18]: 8 mm; zone of inhibition at 100 µg/disc [21]: 7 mm; zone of inhibition at 25 µg/disc [22]: 7 mm; zone of inhibition at 12.5 µg/disc [23]: 7 mm
4 | COc1ccc(-c2nnc(CSc3cc(C)nc(SCc4nnc(-c5ccc(OC)cc5)n4N)n3)n2N)cc1 | – | – | – | – | – | – | – | – | 8 mm | – | 10 mm | – | inactive | inactive | inactive | inactive | inactive | inactive | inactive | inactive | diameter of the inhibition zone (DIZ) [1]: inactive; diameter of the inhibition zone (DIZ) [2]: inactive; diameter of the inhibition zone (DIZ) [6]: inactive; diameter of the inhibition zone (DIZ) [9]: inactive; diameter of the inhibition zone (DIZ) [10]: inactive; diameter of the inhibition zone (DIZ) [11]: inactive; diameter of the inhibition zone (DIZ) [12]: inactive; diameter of the inhibition zone (DIZ) [13]: inactive; diameter of the inhibition zone (DIZ) [16]: inactive; diameter of the inhibition zone (DIZ) [18]: inactive; diameter of the inhibition zone (DIZ) [21]: inactive; diameter of the inhibition zone (DIZ) [22]: inactive; diameter of the inhibition zone (DIZ) [23]: inactive; diameter of the inhibition zone (DIZ) [24]: inactive
